PubChem BioAssay AID220 (DTP/NCI, 2004)
Where “and” joins values, the source holds several entries; their conditions need not be identical. Equal values may be shown once. Results filed as inconclusive are left out.

System: CD8F1 mice, subcutaneous mammary adenocarcinoma, T/C%
Assay: NCI In Vivo Anticancer Drug Screen. Data for tumor model Mammary Adenocarcinoma CD8F1 (subcutaneous) in CD8F1
Conditions: higher = larger tumour
Summary of the method: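 Antitumor activity is assessed in transplantable-tumor mice by comparing the treated group with a vehicle-treated control group. Survival or tumor size serves as the measure, reported as T divided by C.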

[1] = endpoint: median tumor weight (est.), dose: 12.5 mg/kg/injection, schedule: Q07DX005 (ip), vehicle: saline with Tween-80
[2] = endpoint: median tumor weight change, dose: 5.0 mg/kg/injection, schedule: Q01DX001 (ip), vehicle: saline
[3] = endpoint: median tumor weight (est.), dose: 25.0 mg/kg/injection, schedule: Q07DX005 (ip), vehicle: saline with Tween-80

SMILES: CCOC(=O)NC1=C(N2CC2)C(=O)C(NC(=O)OCC)=C(N2CC2)C1=O
- T/C (endpoint: median tumor weight (est.), dose: 0.78 mg/kg/injection, schedule: Q07DX005 (ip), vehicle: saline): 36 % of control
- T/C (endpoint: median tumor weight (est.), dose: 1.56 mg/kg/injection, schedule: Q07DX005 (ip), vehicle: saline with Tween-80): 53 % of control
- T/C (endpoint: median tumor weight (est.), dose: 1.56 mg/kg/injection, schedule: Q07DX005 (ip), vehicle: saline): 36 % of control
- T/C (endpoint: median tumor weight (est.), dose: 3.12 mg/kg/injection, schedule: Q07DX005 (ip), vehicle: saline with Tween-80): 59 % of control
- T/C (endpoint: median tumor weight (est.), dose: 3.12 mg/kg/injection, schedule: Q07DX005 (ip), vehicle: saline): 56 % of control
- T/C (endpoint: median tumor weight (est.), dose: 6.25 mg/kg/injection, schedule: Q07DX005 (ip), vehicle: saline with Tween-80): 25 % of control
- T/C (endpoint: median tumor weight (est.), dose: 6.25 mg/kg/injection, schedule: Q07DX005 (ip), vehicle: saline): 25 % of control
- T/C [1]: 11 % of control
- T/C (endpoint: median tumor weight (est.), dose: 12.5 mg/kg/injection, schedule: Q07DX005 (ip), vehicle: saline): 23 % of control
- T/C (endpoint: median tumor weight change, dose: 2.5 mg/kg/injection, schedule: Q01DX001 (ip), vehicle: saline): 33 % of control
- T/C (endpoint: median tumor weight change, dose: 2.5 mg/kg/injection, schedule: Q01DX001 (ip), vehicle: suspension in saline): 81 % of control
- T/C [2]: 43 % of control
- T/C (endpoint: median tumor weight change, dose: 5.0 mg/kg/injection, schedule: Q01DX001 (ip), vehicle: suspension in saline): 80 % of control
- T/C (endpoint: median tumor weight change, dose: 10.0 mg/kg/injection, schedule: Q01DX001 (ip), vehicle: saline with Tween-80): 16 % of control and 31 % of control
- T/C (endpoint: median tumor weight change, dose: 10.0 mg/kg/injection, schedule: Q01DX001 (ip), vehicle: saline): 32 % of control
- T/C (endpoint: median tumor weight change, dose: 10.0 mg/kg/injection, schedule: Q01DX001 (ip), vehicle: suspension in saline): 52 % of control
- T/C (endpoint: median tumor weight change, dose: 20.0 mg/kg/injection, schedule: Q01DX001 (ip), vehicle: saline with Tween-80): -14 % of control
- T/C (endpoint: median tumor weight change, dose: 20.0 mg/kg/injection, schedule: Q01DX001 (ip), vehicle: saline): 11 % of control
- T/C (endpoint: median tumor weight change, dose: 20.0 mg/kg/injection, schedule: Q01DX001 (ip), vehicle: suspension in saline): 19 % of control

SMILES: O=C1C(NCCO)=C(N2CC2)C(=O)C(NCCO)=C1N1CC1
- T/C (endpoint: median tumor weight change, dose: 0.62 mg/kg/injection, schedule: Q01DX001 (ip), vehicle: saline): 73 % of control
- T/C (endpoint: median tumor weight change, dose: 0.63 mg/kg/injection, schedule: Q01DX001 (ip), vehicle: saline): 36 % of control
- T/C [2]: 25 % of control

SMILES: O=CC(O)C(O)C(O)C(O)CO (centres undefined)
- T/C (endpoint: median tumor weight change, dose: 75.0 mg/kg/injection, schedule: Q01DX001 (ip), vehicle: saline): 66 % of control
- T/C (endpoint: median tumor weight change, dose: 150.0 mg/kg/injection, schedule: Q01DX001 (ip), vehicle: saline): 43 % of control
- T/C (endpoint: median tumor weight change, dose: 300.0 mg/kg/injection, schedule: Q01DX001 (ip), vehicle: saline): 61 % of control
- T/C (endpoint: median tumor weight change, dose: 600.0 mg/kg/injection, schedule: Q01DX001 (ip), vehicle: saline): 35 % of control
- T/C (endpoint: median tumor weight change, dose: 1200.0 mg/kg/injection, schedule: Q01DX001 (ip), vehicle: saline): 55 % of control

SMILES: C[C@@H]1C[C@H]2[C@@H]3CCC4=CC(=O)C=C[C@]4(C)[C@@]3(F)[C@@H](O)C[C@]2(C)[C@@]1(O)C(=O)CO
- T/C (endpoint: median tumor weight (est.), dose: 6.25 mg/kg/injection, schedule: Q07DX005 (ip), vehicle: Klucel (hydroxypropylcellulose) (HPC)): 88 % of control
- T/C (endpoint: median tumor weight (est.), dose: 12.5 mg/kg/injection, schedule: Q07DX005 (ip), vehicle: Klucel (hydroxypropylcellulose) (HPC)): 32 % of control
- T/C (endpoint: median tumor weight (est.), dose: 25.0 mg/kg/injection, schedule: Q07DX005 (ip), vehicle: Klucel (hydroxypropylcellulose) (HPC)): 31 % of control
- T/C (endpoint: median tumor weight (est.), dose: 50.0 mg/kg/injection, schedule: Q07DX005 (ip), vehicle: Klucel (hydroxypropylcellulose) (HPC)): 12 % of control
- T/C (endpoint: median tumor weight (est.), dose: 100.0 mg/kg/injection, schedule: Q07DX005 (ip), vehicle: Klucel (hydroxypropylcellulose) (HPC)): 7 % of control

SMILES: CSc1ncnc2c1ncn2C1OC(CO)C(O)C1O (centres undefined)
- T/C (endpoint: median tumor weight change, dose: 16.0 mg/kg/injection, schedule: Q01DX001 (ip), vehicle: saline + alcohol): 67 % of control
- T/C (endpoint: median tumor weight change, dose: 31.0 mg/kg/injection, schedule: Q01DX001 (ip), vehicle: saline + alcohol): 82 % of control
- T/C (endpoint: median tumor weight change, dose: 62.0 mg/kg/injection, schedule: Q01DX001 (ip), vehicle: saline + alcohol): 52 % of control
- T/C (endpoint: median tumor weight change, dose: 62.5 mg/kg/injection, schedule: Q01DX001 (ip), vehicle: saline + alcohol): 79 % of control
- T/C (endpoint: median tumor weight change, dose: 125.0 mg/kg/injection, schedule: Q01DX001 (ip), vehicle: saline + alcohol): 52 % of control and 70 % of control
- T/C (endpoint: median tumor weight change, dose: 250.0 mg/kg/injection, schedule: Q01DX001 (ip), vehicle: saline + alcohol): 10 % of control and 12 % of control

SMILES: OCC1OC(n2cnc3cc(Cl)c(Cl)cc32)C(O)C1O (centres undefined)
- T/C [1]: 79 % of control
- T/C [3]: 89 % of control and 92 % of control
- T/C (endpoint: median tumor weight (est.), dose: 200.0 mg/kg/injection, schedule: Q07DX005 (ip), vehicle: saline with Tween-80): 80 % of control

SMILES: COC(C(=O)C(O)C(C)O)C1CC2C=C3C=C(OC4CC(OC5CC(O)C(OC)C(C)O5)C(OC(C)=O)C(C)O4)C(C)C(=O)C3=C(O)C2=C(O)C1OC1CC(OC2CC(OC3CC(C)(O)C(O)C(C)O3)C(O)C(C)O2)C(O)C(C)O1 (centres undefined)
- T/C (endpoint: mean tumor weight, dose: 1.0 mg/kg/injection, schedule: Q07DX005 (ip), vehicle: saline): 73 % of control
- T/C (endpoint: mean tumor weight, dose: 2.0 mg/kg/injection, schedule: Q07DX005 (ip), vehicle: saline): 64 % of control
- T/C (endpoint: median tumor weight (est.), dose: 0.5 mg/kg/injection, schedule: Q07DX005 (ip), vehicle: saline with Tween-80): 58 % of control
- T/C (endpoint: median tumor weight (est.), dose: 1.0 mg/kg/injection, schedule: Q07DX005 (ip), vehicle: saline with Tween-80): 78 % of control
- T/C (endpoint: median tumor weight (est.), dose: 2.0 mg/kg/injection, schedule: Q07DX005 (ip), vehicle: saline with Tween-80): 89 % of control

SMILES: COC12C(COC(N)=O)C3=C(C(=O)C(C)=C(N)C3=O)N1CC1C2N1C (centres undefined)
- T/C (endpoint: median tumor weight (est.), dose: 2.0 mg/kg/injection, schedule: Q07DX005 (ip), vehicle: suspension in saline): 53 % of control
- T/C (endpoint: median tumor weight (est.), dose: 4.0 mg/kg/injection, schedule: Q07DX005 (ip), vehicle: suspension in saline): 73 % of control
- T/C (endpoint: median tumor weight (est.), dose: 8.0 mg/kg/injection, schedule: Q07DX005 (ip), vehicle: suspension in saline): 3 % of control

SMILES: C=C(C)C(=NC(C)(C)C)Nc1ccccc1
- T/C (endpoint: median tumor weight change, dose: 62.5 mg/kg/injection, schedule: Q01DX001 (ip), vehicle: saline with Tween-80): 92 % of control
- T/C (endpoint: median tumor weight change, dose: 125.0 mg/kg/injection, schedule: Q01DX001 (ip), vehicle: saline with Tween-80): 60 % of control
- T/C (endpoint: median tumor weight change, dose: 250.0 mg/kg/injection, schedule: Q01DX001 (ip), vehicle: saline with Tween-80): 96 % of control

SMILES: Cn1cc(C2NC(=O)c3ccccc3N2)c2ccccc21 (centres undefined)
- T/C (endpoint: median tumor weight change, dose: 25.0 mg/kg/injection, schedule: Q01DX001 (ip), vehicle: Klucel (hydroxypropylcellulose) (HPC)): 85 % of control
- T/C (endpoint: median tumor weight change, dose: 50.0 mg/kg/injection, schedule: Q01DX001 (ip), vehicle: Klucel (hydroxypropylcellulose) (HPC)): 85 % of control
- T/C (endpoint: median tumor weight change, dose: 100.0 mg/kg/injection, schedule: Q01DX001 (ip), vehicle: Klucel (hydroxypropylcellulose) (HPC)): 91 % of control
- T/C (endpoint: median tumor weight change, dose: 200.0 mg/kg/injection, schedule: Q01DX001 (ip), vehicle: Klucel (hydroxypropylcellulose) (HPC)): 71 % of control
- T/C (endpoint: median tumor weight change, dose: 500.0 mg/kg/injection, schedule: Q01DX001 (ip), vehicle: Klucel (hydroxypropylcellulose) (HPC)): 68 % of control
- T/C (endpoint: median tumor weight change, dose: 1000.0 mg/kg/injection, schedule: Q01DX001 (ip), vehicle: Klucel (hydroxypropylcellulose) (HPC)): 33 % of control

SMILES: N/C(=N\OC(=O)Nc1ccc(CSc2ccc(Cl)cc2)o1)c1ccccn1
- T/C (endpoint: median tumor weight change, dose: 62.0 mg/kg/injection, schedule: Q01DX001 (ip), vehicle: Klucel (hydroxypropylcellulose) (HPC)): 64 % of control
- T/C (endpoint: median tumor weight change, dose: 125.0 mg/kg/injection, schedule: Q01DX001 (ip), vehicle: Klucel (hydroxypropylcellulose) (HPC)): 99 % of control
- T/C (endpoint: median tumor weight change, dose: 250.0 mg/kg/injection, schedule: Q01DX001 (ip), vehicle: Klucel (hydroxypropylcellulose) (HPC)): 80 % of control

SMILES: O=NN(CCCl)C(=O)NCCO
- T/C (endpoint: median tumor weight change, dose: 4.0 mg/kg/injection, schedule: Q01DX001 (ip), vehicle: water): 92 % of control
- T/C (endpoint: median tumor weight change, dose: 8.0 mg/kg/injection, schedule: Q01DX001 (ip), vehicle: water): 86 % of control
- T/C (endpoint: median tumor weight change, dose: 16.0 mg/kg/injection, schedule: Q01DX001 (ip), vehicle: water): 58 % of control

SMILES: CC1(C)CC1(Br)Br
- T/C [1]: 69 % of control
- T/C [3]: 90 % of control
- T/C (endpoint: median tumor weight (est.), dose: 50.0 mg/kg/injection, schedule: Q07DX005 (ip), vehicle: saline with Tween-80): 116 % of control
- T/C (endpoint: median tumor weight (est.), dose: 100.0 mg/kg/injection, schedule: Q07DX005 (ip), vehicle: saline with Tween-80): 59 % of control

SMILES: CCC1(O)CC2CN(CCc3c([nH]c4ccccc34)C(C(=O)OC)(c3cc4c(cc3OC)N(C)C3C(O)(C(=O)NCCSSCCNC(=O)C5(O)C(O)C6(CC)C=CCN7CCC8(c9cc(C%10(C(=O)OC)CC%11CN(CCc%12c%10[nH]c%10ccccc%12%10)CC(O)(CC)C%11)c(OC)cc9N(C)C58)C76)C(O)C5(CC)C=CCN6CCC43C65)C2)C1 (centres undefined)
- T/C (endpoint: median tumor weight change, dose: 1.9 mg/kg/injection, schedule: Q01DX001 (ip), vehicle: saline): 45 % of control
